Results on five compounds are retold here after patent US6780870B2, “Pyrimidine derivatives as selective inhibitors of COX-2” (SmithKline Beecham Corporation, priority 2000, dated 2004).

The target in experiment [1] is T1, human COX-1 (Homo sapiens, UniProt P23219).
T1 construct: expressed in transfected cells
The experiment can be described thus: Inhibition of PGE2 release in COS cells stably transfected with human COX-1. In kind it is cell-based. The note with it: COS cells stably transfected with cDNA for human COX-1; PGE2 release by enzyme immunoassay; 1 hour preincubation; 30 μM arachidonic acid, 15 minutes. How it is done: (§1) Inhibitory activity against human COX-1 and COX-2 was assessed in COS cells which had been stably transfected with cDNA for human COX-1 and human COX-2. 24 Hours prior to experiment, COS cells were transferred from the 175 cm^2 flasks in which they were grown, onto 24-well cell culture plates using the following procedure. The incubation medium (Dulbecco's modified eagles medium (DMEM) supplemented with heat-inactivated foetal calf serum (10% v/v), penicillin (100 IU/ml), streptomycin (100 μg/ml) and geneticin (600 μg/ml)) was removed from a flask of confluent cells (1 flask at confluency contains approximately 1×10^7 cells). 10 ml of phosphate buffered saline (PBS) was added to the flask to wash the cells. Having discarded the PBS, cells were then rinsed in 10 ml trypsin for 20 seconds, after which the trypsin was removed and the flask placed in an incubator (37°) for 1-2 minutes until cells became detached from the flask. The flask was then removed from the incubator and cells resuspended in 10 ml of fresh incubation medium. The contents of the flask was transferred to a 250 ml sterile container and the volume of incubation medium subsequently made up to 100 ml. 1 ml cell suspension was pipetted into each well of 4×24-well cell culture plates. The plates were then placed in an incubator (37° C., 95% air/5% CO2) overnight. If more than 1 flask of cells were required, the cells from the individual flasks were combined before being dispensed into the 24-well plates.
(§2) Following the overnight incubation, the incubation medium was completely removed from the 24-well cell culture plates and replaced with 250 μl fresh DMEM (37° C.). The test compounds were made up to 250× the required test concentration in DMSO and were added to the wells in a volume of 1 μl. Plates were then mixed gently by swirling and then placed in an incubator for 1 hour (37° C., 95% air/5% CO2). […] Plates were then incubated for a further 15 minutes, after which the incubation medium was removed from each well of the plates and stored at −20° C., prior to determination of prostaglandin E2 (PGE2) levels using enzyme immunoassay. […] The selectivity ratio of inhibition of COX-1 versus COX-2 was calculated by comparing respective IC50 values.

Experiment [2] concerns the target T2, human COX-2 (Homo sapiens, UniProt P35354).
T2 construct: expressed in transfected cells
T2 sequence (P35354 18-604): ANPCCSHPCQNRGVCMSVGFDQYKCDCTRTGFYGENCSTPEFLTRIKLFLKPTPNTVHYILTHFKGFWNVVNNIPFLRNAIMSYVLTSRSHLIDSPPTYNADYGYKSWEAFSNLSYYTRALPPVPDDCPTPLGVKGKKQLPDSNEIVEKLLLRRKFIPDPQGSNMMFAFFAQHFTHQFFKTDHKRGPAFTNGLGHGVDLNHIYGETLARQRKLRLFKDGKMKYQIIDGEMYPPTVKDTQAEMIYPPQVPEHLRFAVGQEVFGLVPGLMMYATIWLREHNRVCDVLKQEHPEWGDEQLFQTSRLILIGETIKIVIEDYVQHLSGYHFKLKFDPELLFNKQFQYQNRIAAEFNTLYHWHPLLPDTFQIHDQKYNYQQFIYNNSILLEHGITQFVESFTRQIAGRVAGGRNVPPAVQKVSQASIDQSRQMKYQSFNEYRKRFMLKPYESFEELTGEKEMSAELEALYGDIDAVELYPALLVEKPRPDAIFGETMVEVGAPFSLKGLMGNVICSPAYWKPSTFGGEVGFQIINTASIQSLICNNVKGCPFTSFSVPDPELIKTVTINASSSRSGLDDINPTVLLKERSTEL
The experiment can be described thus: Inhibition of PGE2 release in COS cells stably transfected with human COX-2. In kind it is cell-based. The note with it: COS cells stably transfected with cDNA for human COX-2; PGE2 release by enzyme immunoassay; 1 hour preincubation; 30 μM arachidonic acid, 15 minutes. How it is done:
as §1, §2

T1 sequence (P23219 24-599): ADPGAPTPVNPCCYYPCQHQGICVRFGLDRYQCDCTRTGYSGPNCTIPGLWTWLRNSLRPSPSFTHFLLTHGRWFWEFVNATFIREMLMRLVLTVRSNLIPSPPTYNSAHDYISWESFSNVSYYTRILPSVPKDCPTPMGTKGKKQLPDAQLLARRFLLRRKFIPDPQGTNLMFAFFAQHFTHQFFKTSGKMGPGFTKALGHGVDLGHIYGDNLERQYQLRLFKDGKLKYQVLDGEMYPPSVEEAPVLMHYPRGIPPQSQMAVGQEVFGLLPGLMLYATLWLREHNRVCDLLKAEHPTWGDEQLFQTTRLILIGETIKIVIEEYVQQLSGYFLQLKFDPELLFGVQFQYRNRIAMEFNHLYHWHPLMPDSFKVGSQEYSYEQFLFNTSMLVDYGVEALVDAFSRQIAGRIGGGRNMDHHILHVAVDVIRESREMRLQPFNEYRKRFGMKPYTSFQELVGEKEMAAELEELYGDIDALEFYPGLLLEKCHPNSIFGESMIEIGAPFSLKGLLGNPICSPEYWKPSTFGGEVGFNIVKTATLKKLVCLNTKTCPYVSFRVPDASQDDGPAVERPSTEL

For `CS(=O)(=O)c1ccc(-c2cc(C(F)(F)F)nc(NCc3cccnc3)n2)cc1` [Example 2, 4-[4-(Methylsulfonyl)phenyl]-N-(pyridin-3-ylmethyl)-6-(trifluoromethyl)pyrimidin-2-amine], the results for the IC50 in experiment [1] and in experiment [2] were > 100000 nM and 10.8 nM, respectively.
For `COc1ccc(CNc2nc(-c3ccc(S(C)(=O)=O)cc3)cc(C(F)(F)F)n2)cc1` [Example 9, N-(4-methoxybenzyl)-4-[4-(methylsulfonyl)phenyl]-6-(trifluoromethyl)pyrimidin-2-amine], the results for the IC50 in experiment [1] and in experiment [2] were > 100000 nM and 34 nM, respectively.
Take `CS(=O)(=O)c1ccc(-c2cc(C(F)(F)F)nc(NCc3ccncc3)n2)cc1` [Example 1, 4-[4-(Methylsulfonyl)phenyl]-N-(pyridin-4-ylmethyl)-6-(trifluoromethyl)pyrimidin-2-amine]: the values for the IC50 in experiment [1] and in experiment [2] were > 100000 nM and 1.3 nM, respectively.
`CS(=O)(=O)c1ccc(-c2cc(C(F)(F)F)nc(NCc3ccccc3)n2)cc1` [Example 4, 4-[4-(Methylsulfonyl)phenyl]-N-(phenylmethyl)-6-(trifluoromethyl)-2-pyrimidinamine]: the IC50 is > 100000 nM in experiment [1] and 0.25 nM in experiment [2].
Turning to `CS(=O)(=O)c1ccc(-c2cc(C(F)(F)F)nc(NCc3ccccn3)n2)cc1` [Example 3, 4-[4-(Methylsulfonyl)phenyl]-N-(pyridin-2-ylmethyl)-6-(trifluoromethyl)pyrimidin-2-amine], the IC50 is > 100000 nM in experiment [1] and 2.5 nM in experiment [2].

The term IC50 denotes the concentration that gives 50% inhibition. High values mean a need for much substance, low ones inhibition by little substance.
